These are literature values, as cited in patent publication US20240016170A1, “A ZINC FORTIFIED TEA COMPOSITION” (EKATERRA TEA MANUFACTURING USA LLC, priority 2020, published 2024).

For this series the following is noted: water at 25° C.

The structures appear in SMILES notation.

`[O]=[Zn]` [zinc oxide]: the solubility is listed as 0.0004 g/100 g water.
